Earlier results, collected in article PMC6198970, “Safety, efficacy, and dose response of the maturation inhibitor GSK3532795 (formerly known as BMS-955176) plus tenofovir/emtricitabine once daily in treatment-naive HIV-1-infected adults: Week 24 primary analysis from a randomized Phase IIb trial” (PLoS ONE, 2018).

Tests used:
HIV-1 clinical isolates = conditions: cited from earlier work
[1] = tested on: HIV-1 with A364V or V362I plus secondary changes; parameters: method as in protocol Section 1.4.1.2; conditions: ref protocol Section 1.4.1.2, cited from earlier work
HIV-1 = tested on: HIV-1; parameters: method as in protocol Section 1.4.1.2; conditions: with representative drugs from NRTI, NNRTI, PI, and INI classes; ref protocol Section 1.4.1.2; cited from earlier work
[2] = parameters: method as in protocol Section 1.4.1.2; conditions: 300 mg/kg/day (AUC 279 g·h/mL); ref protocol Section 1.4.1.2; cited from earlier work
[3] = parameters: method as in protocol Section 1.4.1.2; conditions: local lymph node assay in the mouse; ref protocol Section 1.4.1.2; cited from earlier work
cytochrome P450 (CYP)3A4 = tested on: cytochrome P450 (CYP)3A4; parameters: method as in protocol Section 1.4.1.2; conditions: ref protocol Section 1.4.1.2; cited from earlier work
[4] = tested on: mouse P-glycoprotein (P-gp); conditions: higher bioavailability in P-gp knock-out mice / with elacridar; ref protocol Section 1.4.1.2; cited from earlier work
[5] = cited from earlier work
[6] = ref protocol Section 1.4.1.2, cited from earlier work

## C=C(C)[C@@H]1CC[C@]2(NCCN3CCS(=O)(=O)CC3)CC[C@]3(C)[C@H](CC[C@@H]4[C@@]5(C)CC=C(c6ccc(C(=O)O)cc6)C(C)(C)[C@@H]5CC[C@]43C)[C@@H]12 [GSK3532795]
HIV-1 clinical isolates; PBMCs, CRF01_AE subtype, N = 7, ref protocol Section 1.4.1.2
  EC50: 77 nM
HIV-1 clinical isolates; in vitro, ref protocol Section 1.4.1
  Fold less susceptible, CRF01_AE (clade AE) compared to clade B: 2-3 fold
[1]; V362I plus secondary change-containing viruses, read-out: EC50, median
  EC50: 25 nM
[1]; virus with the A364V change
  Loss of susceptibility: > 100 fold
HIV-1
  Effect of 2-drug combinations: additive to synergistic effects
[2]
  Genotoxicity in rat micronucleus assay: not genotoxic
[3]
  Skin sensitization: not a skin sensitizer
Cytochrome P450 (CYP)3A4
  Metabolism in human in vitro systems: primarily mediated via cytochrome P450 (CYP)3A4
[4]
  P-gp substrate status: substrate of mouse P-glycoprotein (P-gp)
[5]; at 20 mg/kg, ref protocol Section 1.4.1.2
  Blood pressure and electrocardiogram: unaffected
[5]; dog, in vivo
  No-observed-effect level (NOEL/NOAEL) for cardiovascular effects (heart rate): 2 mg/kg
[6]; mice, no maternal toxicity at any dose
  Developmental toxicity classification: selective developmental toxicant
[6]; mouse EFD
  Developmental NOAEL: 45 mg/kg/day
[6]; printed dose 100 mg/kg/day, […] in control litters
  Cumulative postimplantation losses: 11.5%
[6]
  Reductions in fetal body weight relative to control values: 5%
